# Laboratory results from paper PMC3160846 (PLoS ONE, 2011).
# Columns and labels:
# [1] = test system: KB cells; assay: Clonogenic assay, KB; assay type: cell-based, Human; details: Homo sapiens, cervical, p53 wild-type, MDR1 negative (parental), read-out: IC50, anti-proliferative activity
# Protocol: (§1) Human lung adenocarcinoma A549 cells and NTUB1 bladder cancer cells were maintained in RPMI supplied with 10% fetal bovine serum. […] KB-derived MRP1-expressing cell line, KB-7D, was maintained in growth medium supplemented with 7 µM VP-16.
# (§2) Two hundred cells in logarithmic growth phase were seeded in a 6-well plate. The cells were exposed to various concentrations of the test drugs for a three-generation period. At the end of the incubation period, cells were fixed and stained with 50% ethanol containing 0.5% methylene blue for 30 min. The plates were washed five times with water and allowed to air-dry. Colonies were countered manually. […] Each value represents the average of at least three independent experiments run in triplicates.
# [2] = test system: KB cells; assay: Apoptosis assays (Annexin-V, caspase-3/-7 imaging, TUNEL), KB; assay type: cell-based, Human; details: 48-72 h
# Protocol: Cells were cultured in chamber-slides, incubated with test agents for 48 h, and washed twice with PBS. Cells were labeled with Annexin-V-FLUOS reagent (catalog number #11858777001, Roche, Indianapolis, IN) for 30 min at room temperature. The cells were analyzed by fluorescence microscopy.
# Caspase-3/-7 activity was analyzed with the MagicRed™ DEVD real-time caspase activity detection kit (catalog number #935, Immunochemistry Technologies LLC, Bloomington, MN). Briefly, cells were cultured in chamber-slides and incubated with test agents for various durations. Cells were then incubated with the Caspase-3/-7 substrate MR-(DEVD2) in culture medium for 1 hour, and then co-incubated with Hoechst 33342 for 15 min. Cells were viewed with a UV-enabled inverted-microscope at an excitation wavelength of 540 nm–560 nm and emission at 610 nm. Experiments were repeated independently at least two times.
# Under in vitro conditions, cells were seeded and cultured in 8-well chamber-slides, and treated with various compounds. […] Cells were counterstained with DAPI to detect the nucleus, and examined by fluorescence microscopy. Amount of red fluorescence labeled (DNA fragmented) cells were counted and percentage of apoptotic cells were calculated as follows: Amount of the red fluorescence labeled cells ÷ Total cells available×100. […]
# [3] = test system: NTU0.017 cells; assay: Clonogenic assay, NTU0.017; assay type: cell-based, Human; details: for IC50: Homo sapiens, NTU0.017, paclitaxol resistant, MDR1 ↑, read-out: IC50, anti-proliferative activity
# Protocol: as §1, §2
# [4] = test system: KB-VIN10 cells; assay: Apoptosis assays (Annexin-V, caspase-3/-7 imaging, TUNEL, PARP cleavage), KB-VIN10; assay type: cell-based, Human; details: for apoptosis: phosphatidylserine translocation, caspase-3/-7 activity, DNA fragmentation: KB-VIN10, 48-72 h
# Protocol: Cells were lysed with ice-cold lysis buffer (10 mM Tris, 1 mM EDTA, 1 mM DTT, 60 mM KCl, 0.5% NP-40 and protease inhibitors). […] The resolved proteins were electrophoretically transferred to PVDF membranes (Amersham Life Science, Amersham, U.K.) for Western blot analysis. […] Membranes were washed twice with TBST then subsequently incubated with a horseradish peroxidase-conjugated secondary antibody (Santa Cruz Biotechnology, Santa Cruz, CA) for 1 hour at room temperature. Immunoreactivity was detected by Enhanced Chemiluminescence (Amersham International, Buckingham, U.K.) and autoradiography. Experiments were repeated independently at least two times.
# The cells were analyzed by fluorescence microscopy.
# Briefly, cells were cultured in chamber-slides and incubated with test agents for various durations. […] Cells were viewed with a UV-enabled inverted-microscope at an excitation wavelength of 540 nm–560 nm and emission at 610 nm. Experiments were repeated independently at least two times.
# Under in vitro conditions, cells were seeded and cultured in 8-well chamber-slides, and treated with various compounds. The treated cells were washed with PBS, fixed with 4% paraformaldehyde for 30 min on ice, and permeabilized with PBST at room temperature. […] Cells were counterstained with DAPI to detect the nucleus, and examined by fluorescence microscopy. Amount of red fluorescence labeled (DNA fragmented) cells were counted and percentage of apoptotic cells were calculated as follows: Amount of the red fluorescence labeled cells ÷ Total cells available×100. Experiments were repeated independently at least two times.
# [5] = test system: HCT116 cancer cells; assay: Western blot of phosphor-Aurora kinases and phosphor-Histone H3 in HCT116 cells; assay type: cell-based
# Protocol: Cells were lysed with ice-cold lysis buffer (10 mM Tris, 1 mM EDTA, 1 mM DTT, 60 mM KCl, 0.5% NP-40 and protease inhibitors). […] The resolved proteins were electrophoretically transferred to PVDF membranes (Amersham Life Science, Amersham, U.K.) for Western blot analysis. The membranes were blocked with 5% non-fat milk at room temperature for two hours, washed twice with TBST (1% Tween) and then incubated with either anti-phosphorylated Aurora-A/-B/-C kinase antibody (#2914S, Cell Signaling Technology, Danvers, MA), anti-Aurora-A and -B kinase antibody (#ab1287 and #ab2254, Abcam, Cambridge, MA), anti-phosphorylated Histone H3 antibody (#9701, Cell Signaling Technology, Danvers, MA), anti-Histone H3 antibody (#9715, Cell Signaling Technology, Danvers, MA), anti-Cyclin B1 antibody or anti-Actin antibody (#sc-245 and #sc-130065, Santa Cruz Biotechnology, Santa Cruz, CA) overnight at 4°C. Membranes were washed twice with TBST then subsequently incubated with a horseradish peroxidase-conjugated secondary antibody (Santa Cruz Biotechnology, Santa Cruz, CA) for 1 hour at room temperature. Immunoreactivity was detected by Enhanced Chemiluminescence (Amersham International, Buckingham, U.K.) and autoradiography. Experiments were repeated independently at least two times.
# [6] = test system: KB cells; assay: Endo-replication (polyploidy), microscopy and flow cytometry, KB; assay type: cell-based, Human; details: 48 h
# Protocol: Cell cycle progression was monitored using flow cytometry. After drug treatment, cells were trypsinized, washed with PBS and fixed in 80% ethanol at −20°C for 1 h. The fixed cells were stained with propidium iodide (containing RNase) at room temperature in the dark for 20 min. The DNA content was determined by a fluorescence-activated cell sorting IV flow cytometer (BD Biosciences, Franklin Lakes, NJ). For each analysis, 10,000 cells were counted and the percentage of cells in each phase was calculated using the ModFit LT software (Verity Software House, Topsham, ME). Experiments were repeated independently at least three times.
# [7] = test system: KB-VIN10 cells; assay: Clonogenic assay, KB-VIN10; assay type: cell-based, Human; details: for IC50: Homo sapiens, KB-VIN10, vincristine resistant, MDR1 ↑, read-out: IC50, anti-proliferative activity
# Protocol: as §1, §2
# [8] = test system: HONE-1 cells; assay: Clonogenic assay, HONE-1; assay type: cell-based, Human; details: Homo sapiens, HONE1; HONE-1, oral, p53 mutant, MDR1 negative; read-out: IC50, anti-proliferative activity
# Protocol: as §1, §2
# [9] = test system: MV4-11 cells; assay: Clonogenic assay, MV4-11; assay type: cell-based, Human; details: Homo sapiens; MV4-11, leukemia, p53 mutant, MDR1 negative; read-out: IC50, anti-proliferative activity
# Protocol: as §1, §2
Compound,IC50 [1],"apoptosis: phosphatidylserine translocation, caspase-3/-7 activity, DNA fragmentation [2]",IC50 [3],Fold difference as compare to the IC50 in the respective parental cells ([3]; NTU0.017 vs NTUB1),"cleavage of PARP ([4]; KB-VIN10, 2× IC50 of KB, 72 h, Western blot)","apoptosis: phosphatidylserine translocation, caspase-3/-7 activity, DNA fragmentation [4]","phosphor-Aurora-A, -B and -C kinase [5]",phosphor-Histone H3 (Ser10) [5],formation of polyploidy (populations >4N) [6],IC50 [7],Fold difference as compare to the IC50 in the respective parental cells ([7]; KB-VIN10 vs KB),IC50 [8],IC50 [9]
CN(C)Cc1ccccc1NC(=O)Nc1ccc(CCNc2ncnc3oc(-c4ccccc4)c(Cl)c23)cc1 [BPR1K653],12 ± 4 nM,induced the caspase-3/-7 activity and DNA fragmentation,10 ± 4 nM,1 fold,cleavage of PARP was only shown,induced the caspase-3/-7 activity and DNA fragmentation,concentration-dependent decrease,concentration-dependent decrease,induced the formation of polyploidy,14 ± 4 nM,1 fold,11 nM,5 nM
Cc1cc(Nc2cc(N3CCN(C)CC3)nc(Sc3ccc(NC(=O)C4CC4)cc3)n2)[nH]n1 [VX680],85 ± 31 nM,"only induced the translocation of the phosphatidylserine molecule, caspase-3/-7 activity and DNA fragmentation in KB cells",6770 ± 1080 nM,–,–,not in the MDR1-expressing KB-VIN10 cells,reduced in a concentration-dependent manner,reduced the amount of phosphor-Histone H3 (Ser10),induced the formation of polyploidy in KB cells,1400 ± 140 nM,–,20 ± 2 nM,15 ± 4 nM
